Experimental data published in ChEMBL document CHEMBL5625205, “3-Methoxy-2-phenylimidazo[1,2-b]pyridazines highly active against Mycobacterium tuberculosis and Mycobacterium marinum” (Eur J Med Chem, 2023).
In brackets after ≈: the same amount, converted by molar mass. Activity calls are given as the source filed them. The rule behind the calls is not given here.

Legend:
[1] = Kinetic solubility of compound in DMSO at pH 6.5 incubated for 30 mins by laser nephelometry; type: physicochemical; details: read-out: Kinetic_solubility
[2] = Metabolic stability in mouse liver microsomes assessed as half life incubated for 60 mins in presence of NADPH; type: ADME, Microsome
[3] = system: Mycobacterium marinum; assay: Antimycobacterial activity against Mycobacterium marinum assessed as inhibition of bacterial growth measured for 5 days by luminometer; type: functional; details: 120 h, time 5 day
[4] = system: Mycobacterium tuberculosis; assay: Antimycobacterial activity against Mycobacterium tuberculosis H37Ra infected in mouse assessed as reduction in relative light unit in lung at 300 mg/kg,po administrated once daily for 5 days; type: functional, organism-based; details: time 5.0 day
[5] = Octanol-water distribution coefficient, logD of the compound at pH 7.4 by HPLC analysis; type: physicochemical
[6] = system: A549; assay: Cytotoxicity against human A549 cells incubated for 48 hrs by MTT assay; type: functional, cell-based; details: A549, 48 h
[7] = Kinetic solubility of compound in DMSO at pH 2 incubated for 30 mins by laser nephelometry; type: physicochemical; details: read-out: Kinetic_solubility
[8] = system: Mycobacterium tuberculosis; assay: Antimycobacterial activity against Mycobacterium tuberculosis H37Ra assessed as inhibition of bacterial growth measured for 5 days by luminometer; type: functional; details: 120 h, time 5 day
[9] = Metabolic stability in mouse liver microsomes assessed as intrinsic clearance incubated for 60 mins in presence of NADPH; type: ADME, Microsome; details: read-out: CLH

COc1cccc(CSc2ccc3nc(-c4ccccc4)c(OC)n3n2)c1
solubility kinetic at 0.5 h [1]: < 1.6 µg/mL | half-life [2]: < 2 min | MIC90 [3]: 2.65 µM (≈ 1 µg/mL) | Activity [4]: inactive | logD [5]: 4.8 | IC50 [6]: > 260 µM | solubility kinetic at 0.5 h [7]: 3.1 µg/mL (≈ 8.21 µM) | MIC90 [8]: ≤ 1.66 µM | microsomal CLint [9]: > 866 µL/min/mg
